Test results published in US9062067B2, “Process for preparation of darunavir and darunavir ethanolate of fine particle size” (Lupin Limited, priority 2009, dated 2015).

What was measured:
[1] = Bulk and tapped density; type: physicochemical; details: after jet mill micronization, Example 4
[2] = Particle size distribution (Malvern mastersizer); type: physicochemical; details: after jet mill micronization, Example 4
From the text: The particle size of the darunavir ethanolate obtained by the process of present invention can be determined by any method known in the art such as laser diffraction, sieve analysis, microscope observation, sedimentation etc. Malvern mastersizer is an instrument employed for particle size determination in the present invention.

CC(C)CN(C[C@@H](O)[C@H](Cc1ccccc1)NC(=O)O[C@H]1CO[C@H]2OCC[C@H]21)S(=O)(=O)c1ccc(N)cc1 [darunavir ethanolate, Darunavir ethanolate]
Bulk density [1]: 0.42 g/mL | Tapped density [1]: 0.72 g/mL | Particle size distribution d0.1 [2]: 2 μm | Particle size distribution d0.5 [2]: 18 μm | Particle size distribution d0.9 [2]: 97 μm
